The values below come from paper PMC9913023, “Repositioning linifanib as a potent anti-necroptosis agent for sepsis” (Cell Death Discovery, 2023).

The structures appear in SMILES notation.

For this assay, the target named is T1, RIPK1 (receptor-interacting serine/threonine-protein kinase 1) (Homo sapiens, UniProt Q13546).
T1 sequence (Q13546 1-671): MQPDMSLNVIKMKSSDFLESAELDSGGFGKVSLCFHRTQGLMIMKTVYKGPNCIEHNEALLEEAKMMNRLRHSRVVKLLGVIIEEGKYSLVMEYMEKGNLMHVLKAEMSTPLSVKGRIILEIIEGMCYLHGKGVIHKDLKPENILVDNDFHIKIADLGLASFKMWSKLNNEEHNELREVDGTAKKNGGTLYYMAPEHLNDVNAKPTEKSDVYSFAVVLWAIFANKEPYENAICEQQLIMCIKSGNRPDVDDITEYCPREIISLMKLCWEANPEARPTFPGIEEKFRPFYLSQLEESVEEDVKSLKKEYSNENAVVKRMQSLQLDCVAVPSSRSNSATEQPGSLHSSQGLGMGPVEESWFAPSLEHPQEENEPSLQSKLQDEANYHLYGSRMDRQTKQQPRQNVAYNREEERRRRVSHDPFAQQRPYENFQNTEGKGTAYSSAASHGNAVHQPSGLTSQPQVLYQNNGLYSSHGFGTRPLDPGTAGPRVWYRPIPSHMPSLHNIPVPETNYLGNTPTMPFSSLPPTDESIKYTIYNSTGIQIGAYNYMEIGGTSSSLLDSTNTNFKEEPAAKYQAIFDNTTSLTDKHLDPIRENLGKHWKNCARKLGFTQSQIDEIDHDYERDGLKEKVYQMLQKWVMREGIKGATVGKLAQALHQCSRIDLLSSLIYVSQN
The assay is described as follows: ADP-Glo kinase assay with recombinant human RIPK1 ([…]). Type of assay: biochemical. (ADP-Glo first removes unused ATP, then detects ADP through luciferase.)

Take `Cc1ccc(F)c(NC(=O)Nc2ccc(-c3cccc4[nH]nc(N)c34)cc2)c1` [linifanib]: the IC50 is 0.67 µM.

What is called IC50 is the concentration at which inhibition is half-maximal.
